Key:
[1] = system: rats; experiment: Rodent Gambling Task (rGT); format: in vivo, rats (males; Long Evans)
Experimental: Testing was carried out in Vancouver (Canada) using rats (males; Long Evans from Charles River) which were given at least two weeks to acclimatise to the animal facility. They were housed in pairs on a 12 hour reverse light-dark cycle (lights off at 7 am). In the second week of acclimatisation, rats were handled briefly each day. […] For each task, there was then a habituation session to the operant boxes before training began.
Ebselen, cocaine and 2,5-dimethoxy-4-iodoamphetamine (DOI) were obtained from Sigma Aldrich, and MDL 100,907 was obtained from Tocris. Ebselen was dissolved in 0.5M DMSO and made up to injection volume (8 ml/kg) using 4% cyclodextrin. Cocaine and DOI were dissolved in 0.9% saline. MDL 100,907 was dissolved in 0.9% saline and the pH was adjusted to 6.25 using 1M NaOH and 0.1M HCl.
All data for the cognitive tasks are presented as mean+SEM change from baseline: • performance on drug day−performance on the previous day
The data were analysed with repeated measures ANOVA with dose as a within-subject factor. Where appropriate, post-hoc analysis was performed using Student's paired t-test.
The Latin square design (for both the 5-CSRTT and rGT experiments) was counterbalanced, based on performance in the last training day of each task. A one week wash-out period was given between drug-administration days. A baseline session was performed both the day before and the day after treatment to ensure stable off-drug performance.
This was performed as described previously (Zeeb et al; Neuropsychopharmacology, 2009, 34(10), 2329-2343), and is illustrated schematically in FIG. 2. Twenty one rats were trained to respond in standard 5-CSRTT boxes. Once reliable responding was established, different reward contingencies were associated with four nose-poke apertures (the central aperture was not used in this task). In each case, the reward size and probability of outcome differed between the choices. When no reward was delivered, a fixed-length time-out was delivered. The length of this time-out was varied between choices, with the longest time-out being associated with the largest, least likely reward. […] On the other 20% of occasions, a 10 second time-out was initiated. Once stable performance was achieved, rats were administered ebselen (2, 5 and 10 mg/kg i.p.) or vehicle in a Latin square design.

[2] = system: healthy participants; experiment: Cambridge Gambling Task (CGT); format: in vivo, human
Experimental: Twenty healthy participants (7 females, 13 males; mean age 25.1 years, range 20-38 years; mean BMI 22.7 kg/m^2, range 18.7-30.0 kg/m^2) were included in the study after giving full informed written consent.
Ebselen capsules and identical matching placebo (containing microcrystalline cellulose) were purchased from Shasun Pharmaceuticals Ltd. Participants were tested twice (seven days apart) receiving on one occasion ebselen and, on the other, placebo in a randomised, double-blind, cross-over design. Ebselen was administered in 6×200 mg capsules in three doses given over two days. The order of receiving either the ebselen or the placebo was randomised.
On the day before cognitive testing, participants took the first dose at 1 pm and the second dose at 10 pm. The final dose was taken around 3 hrs prior to cognitive testing. Participants were sent text message reminders a few minutes before they were due to take medication, and were asked to confirm receipt of the messages. The cognitive tasks were carried out immediately after a magnetic resonance spectroscopy study.
The Cambridge Gambling Task (CGT) from the Cambridge Neuropsychological Test Automated Battery (CANTAB, version 3.0.0, Cambridge Cognition Ltd., Cambridge, UK) (Rogers et al.; Neuropsychopharmacology, 1999, 20, 322-333; Clark et al.; Brain, 2008, 131, 1311-1322) assesses decision-making and risk-taking behaviour outside a learning context. In each trial, participants are shown ten boxes at the top of the screen, with some boxes being red and some being blue. The ratio of red to blue boxes varies from 9:1; 8:2; 7:3; 6:4; 5:5 and vice versa in a pseudo-random order.
Participants are informed that a yellow token is hidden inside one of the boxes and asked to indicate the colour box in which the token is most likely to be hidden, by pressing the colour (RED or BLUE) in a response panel at the bottom of the screen. Following their response, the participants indicate confidence in their selection by betting a proportion of points they are allocated (starting with 100 points). […] On each trial five bets are offered, and each bet represents a fixed percentage of the current total points score (5, 25, 50, 75 and 95%). Possible bets are presented sequentially in a box on the right of the display and participants touch the box to select the bet. If correct, the bet value is added to their total points on the left of the panel, and if incorrect, it is subtracted from the total points.
Participants are asked to accumulate as many points as possible. […] Participants perform the task in four blocks of two separate conditions, ascending and descending bet value (the condition order is counterbalanced across participants). In the ascending condition, bets increase at 2.5 s time intervals from 5% to 95% until participants make their selection. This means that if a participant bets at the first value presented, then they bet only 5% of their total points, and if they wait for the highest value, they bet 95% of their total points. In the descending condition bets start from 95% and decrease to 5%. Low bets in the ascend condition and high bets in the descend condition reveal an impulsive betting strategy, while high bets in both conditions reveal a risk taking or reward seeking strategy.
From the first stage of the task (selecting the likely colour of the box in which the token is hidden), the outcome measures are deliberation time and quality of decision making. Deliberation time is the mean latency from presentation of coloured boxes to participant selection. Quality of decision making refers to the proportion of trials on which the more likely outcome is chosen. From the gamble stage, the outcome measures are risk taking, risk adjustment and delay aversion. Risk taking refers to the mean proportion of current points that the subject stakes on each gamble when the more likely outcome is selected, and can be regarded as an index of reward seeking or loss aversion. […]

O=c1c2ccccc2[se]n1-c1ccccc1 [Ebselen, 2-phenyl-1,2-benzisoselenazol-3(2H)-one]
premature responses ([1]; ebselen 2 mg/kg i.p. vs vehicle, p=0.052): decreased premature responses
response latency (increase in time to respond) ([1]; ebselen 2 mg/kg, paired t-test, p=0.056): trend
reward latency (time taken to collect rewards) ([1]; ebselen 2 mg/kg, p=0.024): significant increase
premature responses ([1]; ebselen 5 mg/kg i.p. vs vehicle, p=0.077): decreased trend
response latency (increase in time to respond) ([1]; ebselen 5 mg/kg, paired t-test, p=0.028): significant
reward latency ([1]; ebselen 5 mg/kg, p=0.069): trend increase
premature responses ([1]; ebselen 10 mg/kg i.p. vs vehicle, p=0.028): decreased premature responses
response latency ([1]; ebselen 10 mg/kg, paired t-test, p=0.246): no significant effect
reward latency (time taken to collect rewards) ([1]; ebselen 10 mg/kg, p=0.005): significant increase
reward latency ([1]; ebselen 2, 5, 10 mg/kg i.p., overall ANOVA, p=0.062): no effect
response latency ([1]; ebselen 2, 5, 10 mg/kg i.p., overall ANOVA, p=0.090): no effect
number of trials completed during the sessions ([1]; ebselen 2, 5, 10 mg/kg i.p., p=0.546): no effect
choice behaviour ([1]; ebselen 2, 5, 10 mg/kg i.p., p=0.596): no effect
premature responses ([1]; ebselen 2, 5 and 10 mg/kg i.p. overall, p=0.088): overall trend to decreased premature responses
effect on deliberation time ([2]; ebselen vs placebo): no significant effects
effect on quality of decision making ([2]; ebselen vs placebo): no significant effects
effect on reward seeking/risk taking ([2]; ebselen vs placebo): increase
effect on risk adjustment ([2]; ebselen vs placebo): no significant effects
effect on delay aversion ([2]; ebselen vs placebo, irrespective of probability of favourable outcome and token ratio): significant decrease
Delay aversion (%), Mean ± SEM ([2]; human, ebselen 6x200 mg in three doses over two days, final dose around 3 hrs before testing, vs placebo p = 0.010): 9.0 ± 2.14%
Reward seeking (%), Mean ± SEM ([2]; human, same regimen, vs placebo p = 0.046): 63.9 ± 1.45%
Risk adjustment, Mean ± SEM ([2]; human, same regimen, vs placebo p = 0.107): 2.1 ± 0.18
Deliberation time (ms), Mean ± SEM ([2]; human, same regimen, vs placebo p = 0.131): 1408 ± 78 ms
Quality of decision making (%), Mean ± SEM ([2]; human, same regimen, vs placebo p = 0.155): 99.3 ± 0.3%
